{"source": "patent US9265706B2", "about": "“Lichesterinic acid and the derivatives of same as pigmentation inhibitors” (Centre National de la Recherche Scientifique—CNRS, priority 2012, dated 2016)", "system": "B16 cells", "experiment": "Melanin content of murine B16 cells by absorbance at 405 nm, related to protein, relative to DMSO control", "type": "cell-based", "details": "for depigmenting activity compared with the positive control hydroquinone: FIG. 2, C9LA+ and C5LA+ given by way of indication", "description": "The cells are seeded in a 10 cm Petri dish at a density of 7×10^5 per dish and are incubated for 96 hours, with a defined concentration of lichen-derived molecule, which has been purified and solubilized in DMSO. After treatment, the cells are recovered by treatment with trypsin and washed twice with PBS. The number of cells recovered is estimated by counting using a hemocytometer. One and the same fraction is used to determine the melanin content and the protein concentration. The melanin content is determined by the absorbance at 405 nm (VersaMax Microplate Reader, Molecular Devices, USA) of the cell solution after solubilization of the melanin with 1M sodium hydroxide, for 15 min at 80° C. The protein concentration is determined according to the protocol of the “DC Protein Assay” kit developed by Bio-Rad laboratories, USA. For each sample treated, the melanin content is related to the amount of protein and expressed as a percentage relative to the control situation (DMSO solution alone). Each measurement is carried out in triplicate and each experiment is carried out independently a minimum of 3 times (except for the C9LA+ and C5LA+ derivatives given by way of indication).\nFIGS. 1 and 2 bring together the results. These figures show the melanin content of the B16 cells treated for 96 h in the presence of a given molecule (FIG. 2), or of a (+)-lichesterinic acid ((+)LA)/(+)-protolichesterinic acid ((+)PLA)/(+)-roccellaric acid ((+)RA) mixture in a 60/25/15 weight ratio (FIG. 1).\nAlong the x-axis are the molecules tested with their concentrations expressed in μM.\nAlong the y-axis, the melanin content is expressed as a percentage relative to the control (DMSO alone=concentration of 0.1%).", "key": {"[1]": {"details": "96 h incubation, concentrations of 0.5 to 2 μM, relative to control, FIG. 2"}}, "data": [{"molecule": "Oc1ccc(O)cc1", "note": "[hydroquinone]", "values": [{"measurement": "decrease in the melanin level (depigmenting positive control)", "setting": "96 h incubation, under the same conditions, concentration not given, FIG. 2", "value": "−20", "unit": "%"}]}, {"molecule": "CCCCCCCCCCCCC[C@H]1OC(=O)[C@@H](C)[C@@H]1C(=O)O", "note": "[roccellaric acid, (+)-roccellaric acid]", "values": [{"measurement": "decrease in the melanin level", "setting": "same conditions, 1 μM, individually isolated product, results not given in figures", "value": "not significant"}]}, {"molecule": "(+)-protolichesterinic acid [PLA+]", "values": [{"measurement": "decrease in the melanin level", "setting": "[1]", "value": "10% to 20%"}]}, {"molecule": "CCCCCCCCCCCCC[C@H]1OC(=O)C(C)=C1C(=O)O", "note": "[(+)-lichesterinic acid]", "values": [{"measurement": "depigmenting activity compared with the positive control hydroquinone", "setting": "96 h incubation", "value": "greater depigmenting activity"}]}, {"molecule": "CCCCC[C@H]1OC(=O)C(C)=C1C(=O)O", "note": "[C5LA+]", "values": [{"measurement": "depigmenting activity compared with the positive control hydroquinone", "setting": "96 h incubation", "value": "comparable depigmenting activity"}]}, {"molecule": "C=C1C(=O)O[C@H](CCCCCCCCCCCCC)[C@H]1C(=O)O", "note": "[PLA+, (+)-protolichesterinic acid]", "values": [{"measurement": "decrease in the melanin level", "setting": "same conditions, 0.25 μM, individually isolated product, results not given in figures", "value": "about −20%"}]}, {"molecule": "CCCCCCCCC[C@H]1OC(=O)C(C)=C1C(=O)O", "note": "[C9LA+, (+)-3-methyl-5-nonylparaconic acid]", "values": [{"measurement": "depigmenting activity compared with the positive control hydroquinone", "setting": "96 h incubation", "value": "greater depigmenting activity"}]}, {"molecule": "CCCCCCCCCCCCC[C@@H]1OC(=O)C(C)=C1C(=O)O", "note": "[LA−, (−)-lichesterinic acid]", "values": [{"measurement": "stimulation of melanin production", "setting": "[1]", "value": "+10% to +30%"}]}]}
